Series [1] deals with BMMSC. Put plainly: Induction of adipogenesis in human BMMSC cells assessed as increase in adiponectin secretion at 10 uM incubated for 5 days by ELISA. The settings on record: time 5.0 day. In kind it is functional, cell-based.
The test system of series [2] is BMMSC. Kind of series: Induction of adipogenesis in human BMMSC cells assessed as increase in ANGPTL4 mRNA at 1 uM incubated for 3 days by qRT-PCR analysis. In kind it is functional, cell-based. The note with it: time 3.0 day. For orientation: Quantitative PCR measures a nucleic acid by following its amplification.
Series [3] has as its system BMMSC. Kind of series: Induction of adipogenesis in human BMMSC cells assessed as increase in ACACB mRNA at 1 uM incubated for 3 days by qRT-PCR analysis. The format is functional, cell-based. The note with it: time 3.0 day.
Series [4] deals with BMMSC. Kind of series: Induction of adipogenesis in human BMMSC cells assessed as increase in HMGCS2 mRNA at 1 uM incubated for 3 days by qRT-PCR analysis. In kind it is functional, cell-based. The settings on record: time 3.0 day.
Series [5] concerns BMMSC. Put plainly: Induction of adipogenesis in human BMMSC cells assessed as increase in HMGCR mRNA at 1 uM incubated for 3 days by qRT-PCR analysis. In kind it is functional, cell-based. The note with it: time 3.0 day.
The test system of series [6] is BMMSC. Put plainly: Induction of adipogenesis in human BMMSC cells assessed as increase in ACOX1 mRNA at 1 uM incubated for 3 days by qRT-PCR analysis. In kind it is functional, cell-based. The settings on record: time 3.0 day.
In series [7] the target is T1, Peroxisome proliferator-activated receptor gamma (Homo sapiens, UniProt P37231).
T1 sequence (P37231 whole entry): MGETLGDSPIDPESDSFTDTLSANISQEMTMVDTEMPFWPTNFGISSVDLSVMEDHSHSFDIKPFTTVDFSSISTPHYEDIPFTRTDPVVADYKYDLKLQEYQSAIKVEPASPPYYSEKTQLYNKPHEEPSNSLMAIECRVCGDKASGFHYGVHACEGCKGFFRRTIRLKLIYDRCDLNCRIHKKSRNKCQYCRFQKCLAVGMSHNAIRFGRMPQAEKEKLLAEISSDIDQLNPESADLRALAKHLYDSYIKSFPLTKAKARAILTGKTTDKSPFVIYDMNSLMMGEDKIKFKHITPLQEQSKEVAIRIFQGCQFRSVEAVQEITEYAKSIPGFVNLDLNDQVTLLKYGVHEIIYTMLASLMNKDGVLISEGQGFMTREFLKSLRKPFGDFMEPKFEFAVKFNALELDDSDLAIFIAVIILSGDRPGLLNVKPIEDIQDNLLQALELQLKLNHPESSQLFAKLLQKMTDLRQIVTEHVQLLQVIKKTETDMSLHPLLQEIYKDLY
Kind of series: Binding affinity to PPARgamma (unknown origin) by TR-FRET assay.

Series [8] addresses T2, Peroxisome proliferator-activated receptor delta (Homo sapiens, UniProt Q03181).
T2 sequence (Q03181 whole entry): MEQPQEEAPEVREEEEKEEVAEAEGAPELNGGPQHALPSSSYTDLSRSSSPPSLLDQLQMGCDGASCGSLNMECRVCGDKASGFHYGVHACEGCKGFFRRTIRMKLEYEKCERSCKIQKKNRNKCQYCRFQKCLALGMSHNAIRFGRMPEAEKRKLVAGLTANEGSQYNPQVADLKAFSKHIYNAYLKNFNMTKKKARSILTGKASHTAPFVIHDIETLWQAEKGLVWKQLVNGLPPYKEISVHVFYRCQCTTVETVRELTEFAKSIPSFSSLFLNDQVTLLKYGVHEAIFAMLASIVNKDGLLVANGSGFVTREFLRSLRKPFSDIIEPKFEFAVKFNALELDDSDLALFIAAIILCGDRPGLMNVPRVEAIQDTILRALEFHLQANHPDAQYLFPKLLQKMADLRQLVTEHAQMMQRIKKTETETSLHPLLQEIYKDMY
Put plainly: Binding affinity to PPARdelta (unknown origin) by TR-FRET assay.

The target in series [9] is T3, Peroxisome proliferator-activated receptor alpha (Homo sapiens, UniProt Q07869).
T3 sequence (Q07869 whole entry): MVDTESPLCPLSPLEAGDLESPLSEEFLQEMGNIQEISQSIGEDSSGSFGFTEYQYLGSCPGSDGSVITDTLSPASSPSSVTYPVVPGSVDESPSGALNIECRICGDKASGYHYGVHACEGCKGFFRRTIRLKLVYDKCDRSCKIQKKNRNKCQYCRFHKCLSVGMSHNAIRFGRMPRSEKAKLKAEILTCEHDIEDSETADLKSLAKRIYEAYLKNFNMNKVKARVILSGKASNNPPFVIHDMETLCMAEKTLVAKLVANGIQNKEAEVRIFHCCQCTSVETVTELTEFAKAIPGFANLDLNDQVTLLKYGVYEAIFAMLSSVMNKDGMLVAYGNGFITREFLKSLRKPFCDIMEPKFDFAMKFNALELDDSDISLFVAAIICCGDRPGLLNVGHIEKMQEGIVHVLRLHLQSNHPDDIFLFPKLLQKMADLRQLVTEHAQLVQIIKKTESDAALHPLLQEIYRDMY
Kind of series: Binding affinity to PPARalpha (unknown origin) by TR-FRET assay. For orientation: In TR-FRET formats the signal depends on donor and acceptor labels being close together.

Series [10] relates to BMMSC. Kind of series: Induction of adipogenesis in human BMMSC cells assessed as lipid droplet formation at 10 uM incubated for 5 days by oil red O staining based inverted microscopy analysis. The format is functional, cell-based. The settings on record: time 5.0 day.
For series [11], the system named is BMMSC. Kind of series: Induction of adipogenesis in human BMMSC cells assessed as increase in adiponectin secretion incubated for 5 days by ELISA. The settings on record: time 5.0 day. The format is functional, cell-based. On the technique in general: ELISA stands for enzyme-linked immunosorbent assay.
The subject of the next series is PC-3. Kind of series: Cytotoxicity against human PC-3 cells assessed as reduction in cell viability incubated for 72 hrs by WST-8 assay. In kind it is functional, cell-based. The settings on record: PC-3, 72 h.
The nature of series [12]: Cytotoxicity against human BM-MSC cells assessed as cell viability at 100 uM incubated for 72 hrs by WST-8 assay. The format is cell-based, BMMSC. The settings on record: read-out: Activity.
The test system of another series is A549. Kind of series: Cytotoxicity against human A549 cells assessed as reduction in cell viability incubated for 72 hrs by WST-8 assay. The format is functional, cell-based. The note with it: A549, 72 h.
Series [13] deals with BMMSC. Kind of series: Induction of adipogenesis in human BMMSC cells assessed as increase in ACACB mRNA at 10 uM incubated for 3 days by qRT-PCR analysis. The settings on record: time 3.0 day. In kind it is functional, cell-based.
Series [14] relates to BMMSC. Put plainly: Induction of adipogenesis in human BMMSC cells assessed as increase in HMGCS2 mRNA at 10 uM incubated for 3 days by qRT-PCR analysis. The format is functional, cell-based. The note with it: time 3.0 day.
Series [15] deals with BMMSC. Put plainly: Induction of adipogenesis in human BMMSC cells assessed as increase in HMGCR mRNA at 10 uM incubated for 3 days by qRT-PCR analysis. The format is functional, cell-based. The settings on record: time 3.0 day.
The subject of series [16] is BMMSC. Kind of series: Induction of adipogenesis in human BMMSC cells assessed as increase in ACOX1 mRNA at 10 uM incubated for 3 days by qRT-PCR analysis. In kind it is functional, cell-based. The settings on record: time 3.0 day.

Data on six molecules can be found in ChEMBL document CHEMBL4665657, “2-Phenyl-8-(1-phenylallyl)-chromenone compounds have a pan-PPAR modulator pharmacophore” (Bioorg Med Chem, 2019).

Molecules are shown by their SMILES. Activity calls are given as the source filed them. No cut-off for these calls is given here.

For orientation: Ki means a dissociation constant, usually derived from enzyme kinetics or from competition with a known ligand. A low value points to higher affinity. By IC50 is commonly meant the concentration needed to halve the response being measured.

In the case of `C=CC(c1ccc(OC)c(OC)c1)c1c(O)cc(O)c2c(=O)cc(-c3ccccc3)oc12` (configuration not stated), in the series with BMMSC [1], the outcome was Active.
Take `Cc1cc(SCc2sc(-c3ccc(C(F)(F)F)cc3)nc2C)ccc1OCC(=O)O`: the result with BMMSC [2], with BMMSC [3] and with BMMSC [5] was Active. The result in the series on BMMSC [4] and in the series on BMMSC [6] was inactive.
Regarding `C=CC(c1ccc(O)c(OC)c1)c1c(O)cc(O)c2c(=O)cc(-c3ccccc3)oc12` (configuration not stated), the results for the Ki in series [7], in series [8] and in series [9] were 2530 nM, 2480 nM and 2410 nM, respectively. The outcome in the series with BMMSC [10] and in the series with BMMSC [1] was Active. Moreover, the Activity entry with BMMSC [11] was “Dose-dependent effect”. For the same molecule, the IC50 worked out at 30600 nM with PC-3 and 55500 nM in the series with A549. Besides, the viability at 72 h, 100 µM in [12] came out at 57%.
For `CCc1ccc(CCOc2ccc(CC3SC(=O)NC3=O)cc2)nc1` (configuration not stated), the outcome in the series with BMMSC [2], in the series on BMMSC [3] and in the series with BMMSC [5] was Active. Moreover, the result with BMMSC [4] and with BMMSC [6] was inactive.
For `C=CC(c1ccc(OC)cc1)c1c(O)cc(O)c2c(=O)cc(-c3ccccc3)oc12` (configuration not stated), the outcome with BMMSC [10] and in the series with BMMSC [1] was Active. Further, the Activity entry with BMMSC [11] is “Dose-dependent effect”.
Turning to `Cc1cccc(Nc2cc(Cl)nc(SCC(=O)O)n2)c1C`, the result in the series with BMMSC [13], in the series on BMMSC [14], with BMMSC [15] and in the series on BMMSC [16] was Active.
